# In ChEMBL document CHEMBL1201861, “Genomics of Drug Sensitity in Cancer screening data, Wellcome Trust Sanger Institute”:
# Columns and labels:
# Assay in all cases: cells
# [1] = tested on: G-401; type: functional, cell-based, Homo sapiens; conditions: Homo sapiens, G-401
# Description: SANGER: Inhibition of human G-401 cell growth in a cell viability assay.
# [2] = tested on: NCI-H23; type: functional, cell-based, Homo sapiens; conditions: Homo sapiens, NCI-H23;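 also: cell viability assay measuring growth inhibition of NCI-H23 cells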
# Description: SANGER: Inhibition of human NCI-H23 cell growth in a cell viability assay.
# [3] = tested on: CAL-72; type: functional, cell-based, Homo sapiens; conditions: Homo sapiens, CAL-72;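 also: cell viability assay measuring inhibition of proliferation in the CAL-72 cell line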
# Description: SANGER: Inhibition of human CAL-72 cell growth in a cell viability assay.
# [4] = tested on: KM12; type: functional, cell-based, Homo sapiens; conditions: Homo sapiens, KM12;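 also: KM12 cell growth inhibition, read out with a cell viability assay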
# Description: SANGER: Inhibition of human KM12 cell growth in a cell viability assay.
# [5] = tested on: HCC1806; type: functional, cell-based, Homo sapiens; conditions: Homo sapiens, HCC1806;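 also: growth inhibition of the cancer cell line, determined with a cell viability assay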
# Description: SANGER: Inhibition of human HCC1806 cell growth in a cell viability assay.
# [6] = tested on: LU-99A; type: functional, cell-based, Homo sapiens; conditions: Homo sapiens, LU-99A;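 also: growth inhibition of LU-99A cells, read out with a cell viability assay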
# Description: SANGER: Inhibition of human LU-99A cell growth in a cell viability assay.
# [7] = tested on: NCI-H650; type: functional, cell-based, Homo sapiens; conditions: Homo sapiens, NCI-H650;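 also: growth inhibition of NCI-H650 cells, read out by a viability assay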
# Description: SANGER: Inhibition of human NCI-H650 cell growth in a cell viability assay.
# [8] = tested on: PSN1; type: functional, cell-based, Homo sapiens; conditions: Homo sapiens, PSN1;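 also: suppression of growth of human PSN1 cells, read out by a cell viability assay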
# Description: SANGER: Inhibition of human PSN1 cell growth in a cell viability assay.
# [9] = tested on: HuCCT-1; type: functional, cell-based, Homo sapiens, HuCCT1; conditions: Homo sapiens, HuCCT-1;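 also: growth inhibition of HuCCT-1 cells, read out by a cell viability assay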
# Description: SANGER: Inhibition of human HuCCT1 cell growth in a cell viability assay.
# [10] = tested on: HT1197; type: functional, cell-based, Homo sapiens, HT-1197; conditions: Homo sapiens, HT1197
# Description: SANGER: Inhibition of human HT-1197 cell growth in a cell viability assay.
# [11] = tested on: COR-L88; type: functional, cell-based; conditions: Homo sapiens;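 also: growth inhibition of COR-L88 cells, read out with a cell viability assay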
# Description: SANGER: Inhibition of human COR-L88 cell growth in a cell viability assay.
# [12] = tested on: A673; type: functional, cell-based, Homo sapiens; conditions: Homo sapiens, A673;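 also: growth inhibition of human A673 cells, read out through a cell viability assay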
# Description: SANGER: Inhibition of human A673 cell growth in a cell viability assay.
# [13] = tested on: A498; type: functional, cell-based, Homo sapiens; conditions: Homo sapiens, A498;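 also: growth inhibition of human A498 cells, read out with a cell viability assay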
# Description: SANGER: Inhibition of human A498 cell growth in a cell viability assay.
# [14] = tested on: CTB-1; type: functional, cell-based; conditions: Homo sapiens
# Description: SANGER: Inhibition of human CTB-1 cell growth in a cell viability assay.
# [15] = tested on: NCI-H1563; type: functional, cell-based, Homo sapiens; conditions: Homo sapiens, NCI-H1563;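 also: growth inhibition of human NCI-H1563 cells, read out with a cell viability assay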
# Description: SANGER: Inhibition of human NCI-H1563 cell growth in a cell viability assay.
# [16] = tested on: ABC-1; type: functional, cell-based, Homo sapiens; conditions: Homo sapiens, ABC-1;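 also: growth inhibition of human ABC-1 cells, read out by a cell viability assay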
# Description: SANGER: Inhibition of human ABC-1 cell growth in a cell viability assay.
# [17] = tested on: NCI-H1755; type: functional, cell-based, Homo sapiens; conditions: Homo sapiens, NCI-H1755;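 also: cell viability readout used to measure growth inhibition of NCI-H1755 cells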
# Description: SANGER: Inhibition of human NCI-H1755 cell growth in a cell viability assay.
# [18] = tested on: COLO-668; type: functional, cell-based, Homo sapiens; conditions: Homo sapiens, COLO-668
# Description: SANGER: Inhibition of human COLO-668 cell growth in a cell viability assay.
# [19] = tested on: LCLC-103H cell line; type: functional, cell-based, Homo sapiens; conditions: Homo sapiens, LCLC-103H
# Description: SANGER: Inhibition of human LCLC-103H cell growth in a cell viability assay.
# [20] = tested on: Huh-7; type: functional, cell-based, Homo sapiens; conditions: Homo sapiens, Huh-7;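 also: HuH-7 cell growth inhibition, read out with a cell viability assay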
# Description: SANGER: Inhibition of human HuH-7 cell growth in a cell viability assay.
# [21] = tested on: NB12; type: functional, cell-based, Homo sapiens; conditions: Homo sapiens, NB12;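 also: growth inhibition of human NB12 cells, read out by a cell viability assay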
# Description: SANGER: Inhibition of human NB12 cell growth in a cell viability assay.
# [22] = tested on: NCI-H1693; type: functional, cell-based, Homo sapiens; conditions: Homo sapiens, NCI-H1693;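 also: growth inhibition of the human cell line, read out with a cell viability assay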
# Description: SANGER: Inhibition of human NCI-H1693 cell growth in a cell viability assay.
# [23] = tested on: MC116; type: functional, cell-based; conditions: Homo sapiens;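 also: growth inhibition of MC116 cells, read out with a cell viability assay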
# Description: SANGER: Inhibition of human MC116 cell growth in a cell viability assay.
# [24] = tested on: HCC 2998; type: functional, cell-based, Homo sapiens; conditions: Homo sapiens, HCC 2998;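 also: growth inhibition of human HCC2998 cells, measured with a cell viability read-out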
# Description: SANGER: Inhibition of human HCC2998 cell growth in a cell viability assay.
# [25] = tested on: KYSE-140; type: functional, cell-based, Homo sapiens; conditions: Homo sapiens, KYSE-140;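 also: cell viability assay measuring growth inhibition in human KYSE-140 cells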
# Description: SANGER: Inhibition of human KYSE-140 cell growth in a cell viability assay.
# [26] = tested on: BV-173; type: functional, cell-based; conditions: Homo sapiens
# Description: SANGER: Inhibition of human BV-173 cell growth in a cell viability assay.
# [27] = tested on: CaR-1; type: functional, cell-based, Homo sapiens; conditions: Homo sapiens, CaR-1;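 also: growth inhibition of human CaR-1 cancer cells, read out with a cell viability assay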
# Description: SANGER: Inhibition of human CaR-1 cell growth in a cell viability assay.
# [28] = tested on: NCI-H2342; type: functional, cell-based; conditions: Homo sapiens;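 also: growth inhibition of the cancer cell line, determined with a cell viability assay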
# Description: SANGER: Inhibition of human NCI-H2342 cell growth in a cell viability assay.
# [29] = tested on: A 172; type: functional, cell-based, Homo sapiens; conditions: Homo sapiens, A 172;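 also: growth inhibition of A172 cells, measured with a cell viability readout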
# Description: SANGER: Inhibition of human A172 cell growth in a cell viability assay.
# [30] = tested on: A101D; type: functional, cell-based, Homo sapiens; conditions: Homo sapiens, A101D;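 also: growth inhibition of the cell line, measured with a viability assay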
# Description: SANGER: Inhibition of human A101D cell growth in a cell viability assay.
# [31] = tested on: EGI-1; type: functional, cell-based, Homo sapiens; conditions: Homo sapiens, EGI-1;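 also: cell viability readout used to gauge growth inhibition of EGI-1 cells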
# Description: SANGER: Inhibition of human EGI-1 cell growth in a cell viability assay.
# [32] = tested on: KGN; type: functional, cell-based, Homo sapiens; conditions: Homo sapiens, KGN;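 also: growth inhibition of KGN cells, read out with a cell viability assay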
# Description: SANGER: Inhibition of human KGN cell growth in a cell viability assay.
# [33] = tested on: CAL-33; type: functional, cell-based, Homo sapiens; conditions: Homo sapiens, CAL-33;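 also: growth inhibition of CAL-33 cells, read out with a cell viability assay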
# Description: SANGER: Inhibition of human CAL-33 cell growth in a cell viability assay.
# [34] = tested on: OAW-28; type: functional, cell-based, Homo sapiens; conditions: Homo sapiens, OAW-28;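 also: growth inhibition of OAW-28 cells, read out with a cell viability assay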
# Description: SANGER: Inhibition of human OAW-28 cell growth in a cell viability assay.
# [35] = tested on: KNS-81-FD; type: functional, cell-based, Homo sapiens; conditions: Homo sapiens, KNS-81-FD;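 also: growth inhibition of KNS-81-FD cells, read out with a cell viability assay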
# Description: SANGER: Inhibition of human KNS-81-FD cell growth in a cell viability assay.
# [36] = tested on: MDA-MB-415; type: functional, cell-based; conditions: Homo sapiens
# [37] = tested on: NB17; type: functional, cell-based; conditions: Homo sapiens;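 also: growth inhibition of NB17 cells, read out with a cell viability assay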
# Description: SANGER: Inhibition of human NB17 cell growth in a cell viability assay.
# [38] = tested on: SJSA-1; type: functional, cell-based, Homo sapiens; conditions: Homo sapiens, SJSA-1;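 also: growth inhibition of human SJSA-1 cells, read out through a cell viability measurement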
# Description: SANGER: Inhibition of human SJSA-1 cell growth in a cell viability assay.
# [39] = tested on: ChaGo-K-1; type: functional, cell-based; conditions: Homo sapiens;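 also: growth inhibition of ChaGo-K-1 cells, read out with a cell viability assay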
# Description: SANGER: Inhibition of human ChaGo-K-1 cell growth in a cell viability assay.
# [40] = tested on: SHP77; type: functional, cell-based, Homo sapiens, SHP-77; conditions: Homo sapiens, SHP77;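 also: growth inhibition of human SHP-77 cells measured by a cell viability assay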
# Description: SANGER: Inhibition of human SHP-77 cell growth in a cell viability assay.
# [41] = tested on: WM-115; type: functional, cell-based, Homo sapiens; conditions: Homo sapiens, WM-115
# Description: SANGER: Inhibition of human WM-115 cell growth in a cell viability assay.
# [42] = tested on: C8166; type: functional, cell-based; conditions: Homo sapiens;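 also: growth inhibition of human C8166 cells measured by a cell viability assay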
# Description: SANGER: Inhibition of human C8166 cell growth in a cell viability assay.
# [43] = tested on: OAW-42; type: functional, cell-based, Homo sapiens; conditions: Homo sapiens, OAW-42;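 also: growth inhibition of OAW-42 cells, read out with a cell viability assay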
# Description: SANGER: Inhibition of human OAW-42 cell growth in a cell viability assay.
# [44] = tested on: SCC-15; type: functional, cell-based, Homo sapiens; conditions: Homo sapiens, SCC-15;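 also: growth inhibition of SCC-15 cells, read out with a cell viability assay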
# Description: SANGER: Inhibition of human SCC-15 cell growth in a cell viability assay.
# [45] = tested on: HT-1376; type: functional, cell-based, Homo sapiens; conditions: Homo sapiens, HT-1376
# Description: SANGER: Inhibition of human HT-1376 cell growth in a cell viability assay.
# [46] = tested on: SBC-5; type: functional, cell-based, Homo sapiens; conditions: Homo sapiens, SBC-5;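 also: cell viability assay read-out, IC50 is the concentration that inhibits growth of the cells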
# Description: SANGER: Inhibition of human SBC-5 cell growth in a cell viability assay.
# [47] = tested on: CTV-1; type: functional, cell-based; conditions: Homo sapiens;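 also: growth inhibition of the cell line, read out with a cell viability assay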
# Description: SANGER: Inhibition of human CTV-1 cell growth in a cell viability assay.
# [48] = tested on: KE-37; type: functional, cell-based; conditions: Homo sapiens;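 also: growth inhibition of KE-37 cells, read out with a cell viability assay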
# Description: SANGER: Inhibition of human KE-37 cell growth in a cell viability assay.
# [49] = tested on: NCI-H1993; type: functional, cell-based, Homo sapiens; conditions: Homo sapiens, NCI-H1993;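 also: growth inhibition of the cancer cell line, assessed with a cell viability assay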
# Description: SANGER: Inhibition of human NCI-H1993 cell growth in a cell viability assay.
# [50] = tested on: 8505C; type: functional, cell-based, Homo sapiens; conditions: Homo sapiens, 8505C
# Description: SANGER: Inhibition of human 8505C cell growth in a cell viability assay.
# [51] = tested on: NB69; type: functional, cell-based, Homo sapiens; conditions: Homo sapiens, NB69;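 also: growth inhibition of NB69 cells, determined by a cell viability assay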
# Description: SANGER: Inhibition of human NB69 cell growth in a cell viability assay.
smiles,measurement,setting,value
O=C1N=C(NCc2cccs2)S/C1=C\c1ccc2ncccc2c1,IC50,[1],> 5 µM
same,IC50,[2],> 5 µM
same,IC50,[3],> 5 µM
same,IC50,[4],> 5 µM
same,IC50,[5],> 5 µM
same,IC50,[6],> 5 µM
same,IC50,[7],> 5 µM
same,IC50,[8],4.11 µM
same,IC50,[9],> 5 µM
same,IC50,[10],> 5 µM
same,IC50,[11],3.48 µM
same,IC50,[12],> 5 µM
same,IC50,[13],> 5 µM
same,IC50,[14],> 5 µM
same,IC50,[15],> 5 µM
same,IC50,[16],> 5 µM
same,IC50,[17],> 5 µM
same,IC50,[18],> 5 µM
same,IC50,[19],> 5 µM
same,IC50,[20],> 5 µM
same,IC50,[21],> 5 µM
same,IC50,[22],> 5 µM
same,IC50,[23],> 5 µM
same,IC50,[24],> 5 µM
same,IC50,[25],> 5 µM
same,IC50,[26],> 5 µM
same,IC50,[27],> 5 µM
same,IC50,[28],> 5 µM
same,IC50,[29],> 5 µM
same,IC50,[30],> 5 µM
same,IC50,[31],> 5 µM
same,IC50,[32],> 5 µM
same,IC50,[33],> 5 µM
same,IC50,[34],> 5 µM
same,IC50,[35],> 5 µM
same,IC50,[36],> 5 µM
same,IC50,[37],> 5 µM
same,IC50,[38],> 5 µM
same,IC50,[39],> 5 µM
same,IC50,[40],> 5 µM
same,IC50,[41],> 5 µM
same,IC50,[42],> 5 µM
same,IC50,[43],> 5 µM
same,IC50,[44],> 5 µM
same,IC50,[45],> 5 µM
same,IC50,[46],> 5 µM
same,IC50,[47],> 5 µM
same,IC50,[48],> 5 µM
same,IC50,[49],> 5 µM
same,IC50,[50],> 5 µM
same,IC50,[51],> 5 µM
O=c1cc(-c2cccc3c2Sc2ccccc2S3)oc(N2CCOCC2)c1 [KU-55933],IC50,[1],> 10 µM
same,IC50,[2],> 10 µM
same,IC50,[3],5.48 µM
same,IC50,[4],9.21 µM
same,IC50,[5],> 10 µM
same,IC50,[6],> 10 µM
same,IC50,[7],> 10 µM
same,IC50,[8],> 10 µM
same,IC50,[9],> 10 µM
same,IC50,[10],> 10 µM
same,IC50,[12],> 10 µM
same,IC50,[13],> 10 µM
same,IC50,[14],> 10 µM
same,IC50,[15],> 10 µM
same,IC50,[16],> 10 µM
same,IC50,[17],> 10 µM
same,IC50,[18],> 10 µM
same,IC50,[19],> 10 µM
same,IC50,[20],> 10 µM
same,IC50,[21],> 10 µM
same,IC50,[22],> 10 µM
same,IC50,[23],> 10 µM
same,IC50,[24],> 10 µM
same,IC50,[25],> 10 µM
same,IC50,[27],> 10 µM
same,IC50,[28],> 10 µM
same,IC50,[29],> 10 µM
same,IC50,[30],> 10 µM
same,IC50,[31],> 10 µM
same,IC50,[32],> 10 µM
same,IC50,[33],> 10 µM
same,IC50,[34],> 10 µM
same,IC50,[35],> 10 µM
same,IC50,[36],> 10 µM
same,IC50,[37],> 10 µM
same,IC50,[38],> 10 µM
same,IC50,[39],> 10 µM
same,IC50,[40],> 10 µM
same,IC50,[41],> 10 µM
same,IC50,[42],> 10 µM
same,IC50,[43],> 10 µM
same,IC50,[44],> 10 µM
same,IC50,[45],> 10 µM
same,IC50,[46],> 10 µM
same,IC50,[48],> 10 µM
same,IC50,[49],> 10 µM
same,IC50,[50],> 10 µM
same,IC50,[51],> 10 µM
CN(Cc1cnc2nc(N)nc(N)c2n1)c1ccc(C(=O)N[C@@H](CCC(=O)O)C(=O)O)cc1 [METHOTREXATE],IC50,[1],> 0.2 µM
same,IC50,[2],> 0.2 µM
same,IC50,[3],> 0.2 µM
same,IC50,[4],0.164 µM
same,IC50,[5],> 0.2 µM
same,IC50,[6],> 0.2 µM
same,IC50,[7],> 0.2 µM
same,IC50,[8],> 0.2 µM
same,IC50,[9],> 0.2 µM
same,IC50,[10],> 0.2 µM
same,IC50,[12],> 0.2 µM
same,IC50,[13],> 0.2 µM
same,IC50,[14],0.0162 µM
same,IC50,[15],> 0.2 µM
same,IC50,[16],> 0.2 µM
same,IC50,[17],> 0.2 µM
same,IC50,[18],> 0.2 µM
same,IC50,[19],0.174 µM
same,IC50,[20],> 0.2 µM
same,IC50,[21],> 0.2 µM
same,IC50,[22],> 0.2 µM
same,IC50,[23],0.0606 µM
same,IC50,[24],> 0.2 µM
same,IC50,[25],> 0.2 µM
same,IC50,[26],0.00635 µM
same,IC50,[27],> 0.2 µM
same,IC50,[28],> 0.2 µM
same,IC50,[29],> 0.2 µM
same,IC50,[30],> 0.2 µM
same,IC50,[31],> 0.2 µM
same,IC50,[32],0.15 µM
same,IC50,[33],> 0.2 µM
same,IC50,[34],> 0.2 µM
same,IC50,[35],> 0.2 µM
same,IC50,[36],> 0.2 µM
same,IC50,[37],> 0.2 µM
same,IC50,[38],> 0.2 µM
same,IC50,[39],> 0.2 µM
same,IC50,[40],> 0.2 µM
same,IC50,[41],> 0.2 µM
same,IC50,[42],> 0.2 µM
same,IC50,[43],> 0.2 µM
same,IC50,[44],> 0.2 µM
same,IC50,[45],> 0.2 µM
same,IC50,[46],0.0694 µM
same,IC50,[47],0.0771 µM
same,IC50,[48],0.0155 µM
same,IC50,[49],> 0.2 µM
same,IC50,[50],> 0.2 µM
same,IC50,[51],> 0.2 µM
